Assay results published in ChEMBL document CHEMBL5226359, “Recent research and development of inhibitors targeting sentrin-specific protease 1 for the treatment of cancers” (Eur J Med Chem, 2022).

What was measured:
[1] = target: T1, Sentrin-specific protease 1 (Homo sapiens, UniProt Q9P0U3); assay: Inhibition of SENP1 (unknown origin)
T1 sequence (Q9P0U3 whole entry): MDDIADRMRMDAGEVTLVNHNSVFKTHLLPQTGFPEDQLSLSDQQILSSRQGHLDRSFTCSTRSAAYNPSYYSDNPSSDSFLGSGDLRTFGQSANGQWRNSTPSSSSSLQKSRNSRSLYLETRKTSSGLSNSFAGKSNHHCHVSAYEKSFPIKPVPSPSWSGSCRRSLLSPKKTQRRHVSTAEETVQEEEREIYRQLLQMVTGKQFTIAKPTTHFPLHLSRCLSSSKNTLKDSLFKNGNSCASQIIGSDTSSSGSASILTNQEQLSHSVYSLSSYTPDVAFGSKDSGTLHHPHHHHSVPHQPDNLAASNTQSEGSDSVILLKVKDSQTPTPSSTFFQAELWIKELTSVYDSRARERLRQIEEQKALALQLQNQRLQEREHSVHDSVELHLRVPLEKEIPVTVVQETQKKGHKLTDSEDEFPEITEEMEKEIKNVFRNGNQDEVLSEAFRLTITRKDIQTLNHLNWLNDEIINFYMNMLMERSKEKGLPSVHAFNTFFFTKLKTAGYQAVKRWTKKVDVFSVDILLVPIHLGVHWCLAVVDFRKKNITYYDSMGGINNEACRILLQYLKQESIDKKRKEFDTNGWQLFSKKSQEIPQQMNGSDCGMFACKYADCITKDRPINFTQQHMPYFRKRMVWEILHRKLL

[2] = target: T1, Sentrin-specific protease 1; assay: Inhibition of human full-length recombinant SENP1

| SMILES | IC50 [1] | IC50 [2] |
| --- | --- | --- |
| Cc1cc(OCC(=O)Nc2nonc2NC(=O)COc2ccc(Cl)c(C)c2)ccc1Cl | > 30 µM |  |
| CCCCOc1ccc(-c2nonc2NC(=O)COc2ccccc2C)cc1 | > 30 µM |  |
| O=C(Cc1ccccc1)Oc1c(OC(=O)Cc2ccccc2)c(-c2ccc(O)cc2)c(O)c(O)c1-c1ccc(O)cc1 [VIALININ A] |  | 1.6 µM |
